Test results from patent US9745339B2 (GRAFFINITY PHARMACEUTICALS GMBH, priority 2012, dated 2017).

Key:
Details in all cases: L55-73: estimated values based on the knowledge obtained from L01-L54
[1] = tested on: poly-IgG from human serum (h-poly-IgG); experiment: Microtiter plate chromatography of resins: binding and elution of human poly-IgG
Protocol: (§1) Resins were assessed in packed mode by microtiter plate chromatography. For each column, approximately 30 μl of resin were transferred to a 384-well filter plate and sealed with appropriate top fits. Columns with rProtein A SEPHAROSE 4 FF and MABSORBENT A2P HF were included as controls.
(§2) Either 3.3 cv of whole IgGs dissolved at 0.5 mg ml^−1 in PBS or undiluted host cell proteins (HCP) were injected onto columns.
(§3) Unbound protein was washed from columns with 5 cv of PBS prior to elution with 5 cv of glycine buffer at pH 2.5. […] During injection of samples, speed was reduced to 10 g and centrifugation time increased to 5-10 min. Effluent fractions were collected in 384-well plates and concentrations of protein were analyzed by Bradford assay. Protein masses mi, mft and me (see below) were calculated as the product of fraction volume and measured protein concentration.
(§4) The fraction of bound protein was calculated as the difference between the total mass of protein injected mi and the mass of protein detected in the flowthrough mft, divided by the total mass of protein injected.
(§5) The yield of protein was calculated as the mass of protein eluted me, divided by the mass of protein injected mi.
(§6) The fraction of bound protein and the yield of protein were calculated for each resin based on data for whole IgG-antibodies. In the case of host cell proteins, only the fraction of bound protein is given. Selectivity of resins was calculated from data for Bevacizumab whole IgG and host cell proteins. Due to limited experimental precision, selectivity was truncated for values beyond 10.

Palivizumab = experiment: Microtiter plate chromatography of resins: binding and elution of Palivizumab
Protocol: as §1, §2, §3, §4, §5, §6

host cell proteins (HCP) = experiment: Microtiter plate chromatography of resins: binding of host cell proteins; parameters: species or system CHO cell culture
Protocol: Flowthrough from protein A chromatography (referred to as host cell proteins) was derived from the supernatant of antibody-producing CHO cell culture in serum-free medium. Coomassie brilliant blue dye reagent for Bradford assay was purchased from Thermo Scientific (Bonn/Germany).
as §1, §2, §3, §4, §6

Bevacizumab = target: T1, Bevacizumab (Homo sapiens, UniProt P01857); experiment: Microtiter plate chromatography of resins: binding and elution of Bevacizumab
T1 construct: 0.5 mg/ml IgG in PBS pH 7.3; ligand immobilized on SEPHAR; Bevacizumab Yield; other: mass eluted (glycine pH 2.5) / mass injected; kd (dissociation constant, Langmuir isotherm); other: Bevacizumab 0.05-5 mg/ml in PBS pH 7.3, 25° C., at least 3 h; qm (maximum capacity); other: mg Bevacizumab per ml of resin; Langmuir isotherm; t0; fused on or other part: Humanized anti-VEGF-A VH domain joined N-terminally to the IGHG1 constant region (engineered, no UniProt entry)
Protocol: as §1, §2, §3, §4, §5
The selectivity of resins was calculated as the fraction of bound Bevacizumab antibody BAb, divided by the fraction of bound host cell proteins BHCP.
as §6

Tocilizumab = experiment: Microtiter plate chromatography of resins: binding and elution of Tocilizumab
Protocol: as §1, §2, §3, §4, §5, §6

Cetuximab = experiment: Microtiter plate chromatography of resins: binding and elution of Cetuximab
Protocol: as §1, §2, §3, §4, §5, §6

Structure (SMILES) | h-poly-IgG Bound [1] | Palivizumab Bound (Palivizumab) | HCP Bound (host cell proteins (HCP)) | Bevacizumab Bound (Bevacizumab) | Bevacizumab Yield (Bevacizumab) | Tocilizumab Bound (Tocilizumab) | Cetuximab Bound (Cetuximab)
NCCCn1cnc2cc(C(=O)Nc3ncc(-c4ccco4)s3)ccc21 [Ligand L58, 1-(3-Amino-1-propyl)benzimidazole-5-carboxylic acid N-[5-(2-furyl)thiazol-2-yl] amide] | >80% | >80% | <40% | 100% | >80% | >95% | 100%
Cc1nc2cc(C(=O)Nc3nnc(-c4ncco4)s3)ccc2n1CCCN [Ligand L73, 1-(3-Amino-1-propyl)-2-methylbenzimidazole-5-carboxylic acid N-[5-(2-oxazolyl)-1,3,4-thiadiazol-2-yl] amide] | >80% | >60% | <20% | 100% | >80% | >90% | >95%
Cc1nc2cc(C(=O)Nc3nc(-c4ccco4)cs3)ccc2n1CCCN [Ligand L62, 1-(3-Amino-1-propyl)-2-methylbenzimidazole-5-carboxylic acid N-[4-(2-furyl)thiazol-2-yl] amide] | >80% | >80% | <40% | 100% | >80% | >95% | 100%
CCc1nc2cc(C(=O)Nc3ccc(-c4ccco4)nn3)ccc2n1CCCN [Ligand L69, 1-(3-Amino-1-propyl)-2-ethylbenzimidazole-5-carboxylic acid N-[6-(2-furyl)pyridazin-3-yl]amide] | >80% | >60% | <30% | 100% | >80% | >90% | >95%
CCc1nc2cc(C(=O)Nc3nc(-c4ccco4)cs3)ccc2n1CCCN [Ligand L67, 1-(3-Amino-1-propyl)-2-ethylbenzimidazole-5-carboxylic acid N-[4-(2-furyl)thiazol-2-yl] amide] | >80% | >80% | <30% | 100% | >80% | >95% | 100%
CCc1nc2cc(C(=O)Nc3nc(-c4ccco4)ns3)ccc2n1CCCN [Ligand L65, 1-(3-Amino-1-propyl)-2-ethylbenzimidazole-5-carboxylic acid N-[3-(2-furyl)-1,2,4-thiadiazol-5-yl] amide] | >80% | >80% | <30% | 100% | >80% | >95% | 100%
NCCCn1cnc2cc(C(=O)Nc3nc(-c4ccco4)cs3)ccc21 [Ligand L57, 1-(3-Amino-1-propyl)benzimidazole-5-carboxylic acid N-[4-(2-furyl)thiazol-2-yl] amide] | >80% | >80% | <40% | 100% | >80% | >95% | 100%
NCCCn1cnc2cc(C(=O)Nc3ccc(-c4ccco4)nn3)ccc21 [Ligand L59, 1-(3-Amino-1-propyl)benzimidazole-5-carboxylic acid N-[6-(2-furyl)pyridazin-3-yl] amide] | >80% | >60% | <40% | 100% | >80% | >90% | >95%
Cc1nc2cc(C(=O)Nc3nnc(-c4cnco4)s3)ccc2n1CCCN [Ligand L72, 1-(3-Amino-1-propyl)-2-methylbenzimidazole-5-carboxylic acid N-[5-(5-oxazolyl)-1,3,4-thiadiazol-2-yl] amide] | >80% | >60% | <20% | 100% | >80% | >90% | >95%
NCCCn1cnc2cc(C(=O)Nc3nnc(-c4ccoc4)s3)ccc21 [Ligand L56, 1-(3-Amino-1-propyl)benzimidazole-5-carboxylic acid N-[5-(3-furyl)-1,3,4-thiadiazol-2-yl] amide] | >80% | >80% | <40% | 100% | >80% | >95% | 100%
CCc1nc2cc(C(=O)Nc3ncc(-c4ccco4)s3)ccc2n1CCCN [Ligand L68, 1-(3-Amino-1-propyl)-2-ethylbenzimidazole-5-carboxylic acid N-[5-(2-furyl)thiazol-2-yl] amide] | >80% | >80% | <30% | 100% | >80% | >95% | 100%
NCCCNc1nc(-c2ccc(C(=O)Nc3nnc(-c4ccco4)s3)cc2)cs1 [Ligand L70, 4-[2-(3-Amino-1-propylamino)thiazol-4-yl]benzoic acid N-[5-(2-furyl)-1,3,4-thiadiazol-2-yl]amide] | >80% | >50% | <40% | 100% | >80% | >80% | >80%
Cc1nc2cc(C(=O)Nc3nc(-c4ccco4)ns3)ccc2n1CCCN [Ligand L60, 1-(3-Amino-1-propyl)-2-methylbenzimidazole-5-carboxylic acid N-[3-(2-furyl)-1,2,4-thiadiazol-5-yl] amide] | >80% | >80% | <40% | 100% | >80% | >95% | 100%
Cc1nc2cc(C(=O)Nc3nnc(-c4ccno4)s3)ccc2n1CCCN [Ligand L71, 1-(3-Amino-1-propyl)-2-methylbenzimidazole-5-carboxylic acid N-[5-(5-isoxazolyl)-1,3,4-thiadiazol-2-yl] amide] | >80% | >60% | <20% | 100% | >80% | >90% | >95%
Cc1nc2cc(C(=O)Nc3ncc(-c4ccco4)s3)ccc2n1CCCN [Ligand L63, 1-(3-Amino-1-propyl)-2-methylbenzimidazole-5-carboxylic acid N-[5-(2-furyl)thiazol-2-yl] amide] | >80% | >80% | <20% | 100% | >80% | >95% | 100%
NCCCn1cnc2cc(C(=O)Nc3nc(-c4ccco4)ns3)ccc21 [Ligand L55, 1-(3-Amino-1-propyl)benzimidazole-5-carboxylic acid N-[3-(2-furyl)-1,2,4-thiadiazol-5-yl] amide] | >80% | >80% | <40% | 100% | >80% | >95% | 100%
Cc1nc2cc(C(=O)Nc3ccc(-c4ccco4)nn3)ccc2n1CCCN [Ligand L64, 1-(3-Amino-1-propyl)-2-methylbenzimidazole-5-carboxylic acid N-[6-(2-furyl)pyridazin-3-yl] amide] | >80% | >60% | <20% | 100% | >80% | >90% | >95%
CCc1nc2cc(C(=O)Nc3nnc(-c4ccoc4)s3)ccc2n1CCCN [Ligand L66, 1-(3-Amino-1-propyl)-2-ethylbenzimidazole-5-carboxylic acid N-[5-(3-furyl)-1,3,4-thiadiazol-2-yl] amide] | >80% | >80% | <30% | 100% | >80% | >95% | 100%
